In patent US6428950B1, “Assay to identify compounds that alter apolipoprotein E expression” (Scios Inc., priority 1998, dated 2002):

Experiments:
[1] = system: organotypic hippocampal cultures; test: apoE release from organotypic hippocampal brain slice cultures; assay type: cell-based, rat; settings: for inhibition of apoE: organotypic hippocampal brain slice cultures, FIG. 7
Description: Eight day old neonatal rat or mouse pups were quickly decapitated with scissors, serrated on one edge, in an aseptic fume hood. The brain was rapidly removed to buffered dissection media containing 100 ml MEM, 1 ml penicillin/streptomycin, 1 ml Tris 100×stock (10 mm final, pH 7.2), sterile filtered and chilled. The hippocampi and cortices were isolated under a dissecting microscope and transported in dissection media to a sterile fume hood. Tissue was positioned on the stage of a MacIllwain tissue chopper with a sterile paint brush, and 400 μm sections were made. Approximately 30 sections per animal were be obtained. Sections were separated by vigorously swirling the petri dish containing the sections in culture media, containing 25% horse serum, 25% Hank's media, 50% minimal essential media, 1 ml penicillin/streptomycin, 0.5 ml L-glutamine. Sections were inspected with a dissecting microscope and damaged tissue removed. The selected sections were manipulated in drops of dissecting media with Pasteur pipettes which had been scored and broken, then fire polished, to produce appropriate diameter bores, and placed on Millipore culture plate inserts set into 35 mm plate containing 1 ml culture media or 6 well plates containing 1.2 ml culture media. Plates containing inserts and media had been pre-equilibrated to 37° C. and 5% CO2. Three to six slices were positioned on each insert. Excess media was drawn off the slice, and the culture placed in a 37° C., 5% CO2 incubator. Cultures were maintained for up to 3 months. Media was changed at 24 hours, and at 3-4 day intervals.
Media was pre-equilibrated in plates at 37° C., 5% CO2. Culture inserts holding 3 rat organotypic brain slices obtained from 8 day old animals and maintained in culture for 2 weeks were transferred to the media containing test solution. […]
After treatment, medium is harvested and assayed for apoE levels using immunoassays such as ELISA or Western blot. Cell lysates prepared from the treated brain slices and analyzed for cell-associated apoE using the same assays.

BV-2 microglial cells = test: basal apoE production from BV-2 microglial cell cultures; assay type: cell-based, murine; settings: no β-amyloid treatment, FIG. 5
Description: Microglial cell lines were used to evaluate changes in apoE expression. Microglial cell lines for use in the method of the invention include murine lines, e.g. BV-2 cell line (Blasi et al. J. Neuroimmunol. 27:229-237 (1990) and the N9 cell line (Corradin et al. Glia 7:255-262 (1993) or human lines such as those described in Janabi et al. Neurosci. Lett. 195:105-108 (1995). The microglial cell lines used were obtained from the investigators who isolated the lines. Astroglial continuous cell lines were also utilized in the assay, e.g. the human U373-MG line or the rodent lines C6 and DI TNC1. All of these astrocytic lines were obtained, from the American Tissue Culture Collection cell repository (Rockville, Md.).
To screen for inhibitors of apoE secretion or production using cultured brain cells, wells containing cultures were incubated in serum-free medium or medium containing reduced serum concentrations (1 to 0.1%) for various periods of time anywhere from 1-72 hours in the presence of the test compound. For some inhibitors, such as HMG CoA reductase and farnesylation inhibitors, pre-treatment of the cultures with the compound for 4-16 hours in serum-containing growth medium was used to maximize the effectiveness of the assay. Cultures were treated with β-amyloid to stimulate apoE levels in the test paradigm. […]

[2] = system: murine mixed primary glia; test: basal apoE production from murine mixed primary glia cultures; assay type: cell-based; settings: no β-amyloid treatment, FIG. 5
Description: Primary mixed glial cultures, purified primary astrocyte, and purified primary microglial cultures prepared from rodent or human brain tissue (generally fetal) were used in the test assay. A variety of preparation methods can be used to isolate primary glial cultures, both mixed and purified for astroglial or microglial cell types. See e.g. McCarthy and de Vellis, J. Cell Biol. 85:890-902 (1980); Levinson & McCarthy in Culturing Nerve Cells, MIT Press, Cambridge, Mass. at 309-336 (1991); Hu et al. J. Biol. Chem. 271:2543-2547 (1996); Stone et al. Exptl. Neurol. 143:313-318 (1997); Barger et al. Mol. Brain Res. 40:116-126 (1996); and Manthorpe et al. J. Neurocytol. 8:605-621 (1979). Also, primary glial cultures can be prepared which include neurons, such as in the procedure described by Messmer-Joudrier et al. Eur. J. Neurosci. 8: 2652-2661 (1996). For primary cell cultures, different brain regions were used to isolate the cells. Hippocampal, cortical, cerebellar or brain stem cultures were prepared. Primary and continuous cell lines were plated into wells of a multi-well plate at a subconfluent density for the assay. Typically, the cultures were used within 1-2 days of initial plating. […]

Compound	inhibition of apoE [1]	inhibition of apoE ([1]; listed as NaSalicylate)	basal apoE levels (BV-2 microglial cells)	basal apoE levels [2]	apoE release ([1]; organotypic hippocampal cultures, 24, 48, 72 hours after treatment, FIG. 6)
O=C([O-])c1ccccc1O.[Na+] [sodium salicylate]	time- and dose-dependent inhibition of apoE	dose dependent inhibition of apoE	–	–	–
COC(=O)[C@H](CC(C)C)NC(=O)c1ccc(NC[C@@H](N)CS)cc1-c1ccccc1 [GGTI-286]	–	–	reduced basal apoE levels	reduced basal apoE levels	inhibitory effect on apoE release
